Measurements from patent US20120190580A1, “TREATMENT OF PATIENTS AFTER STENT IMPLANTATION OR BALLOON DILATATION AND DRUG ELUTING STENTS” (MAX-PLANCK-GESELLSCHAFT ZUR FORDERUNG DER WISSENSCHAFTEN …, priority 2009, published 2012).

Experiments:
Format in all cases: in vivo, mouse
[1] = system: arteries of KO mice; assay: Morphological analysis of arteries after chronic treatment; conditions: 20 days treatment
Text: A 129S7AB2.2 genomic BAC clone (bMQ-446B20; Sanger) was used to generate the targeting vector. Recombination in SW102 cell was employed to replace the miR-143 to miR-145 genomic region by a galK cassette (45) that was amplified by the primers flanking premiR-143 to pre-miR-145 ([…] GCggcgcgcctcagcactgtcctgctcctt; […] ACggcgcgcctgttgacaattaatcatcggca). The genomic sequence was inserted via gap repair into a pKO targeting vector containing a DTA expression cassette and 450 bp homology arms for BAC recombination resulting in a vector containing 6.5 kb of sequence 5′ of miR-143 and 5.5 kb 3′ of miR-145 from genomic sequence […] to […]. The AscI restriction sites flanking the galK cassette were used to replace the galK by a floxed IRESIacZ-NeoR cassette. […]
Arteries were perfused using a PBS solution via the heart apex at 100 mmHg pressure for 2 min, followed by perfusion with 4% paraformaldehyde in PBS. […] Ultra-thin sections were stained with uranyl acetate and lead citrate, viewed and photographically recorded using a Philips CM 10 electron microscope. The phenotype of VSMC was determined ultrastructurally following criteria as previously reported (47). […] The phenotype of VSMC in each mouse was quantified in at least 300 cells per 3 arterial segments (minimum 100 μm) using consecutive transversal sections. […]

[2] = system: mesenteric arteries; assay: Myograph: contractile responses to phenylephrine of mesenteric arteries from losartan-treated mice
Text: (§1) A 129S7AB2.2 genomic BAC clone (bMQ-446B20; Sanger) was used to generate the targeting vector. Recombination in SW102 cell was employed to replace the miR-143 to miR-145 genomic region by a galK cassette (45) that was amplified by the primers flanking premiR-143 to pre-miR-145 ([…] GCggcgcgcctcagcactgtcctgctcctt; […] ACggcgcgcctgttgacaattaatcatcggca). The genomic sequence was inserted via gap repair into a pKO targeting vector containing a DTA expression cassette and 450 bp homology arms for BAC recombination resulting in a vector containing 6.5 kb of sequence 5′ of miR-143 and 5.5 kb 3′ of miR-145 from genomic sequence […] to […]. The AscI restriction sites flanking the galK cassette were used to replace the galK by a floxed IRESIacZ-NeoR cassette. The vector was electroporated into MPI II ES cells (46) and recombinant clones were identified. Recombinant ES cells were injected into blastocysts and transferred to pseudopregnant mice. Chimeric animals were backcrossed to C57BL/6 mice. Heterozygous animals were used to obtain WT and KO littermates. ES cells and mice were genotyped using an EcoRV restriction digest and a 5′ outside probe amplified from genomic DNA using oligonucleotides ([…]; […]). For chronic ACE or AT1 inhibition drinking water of mice was supplemented with 600 μg/ml captopril (Sigma#C-8856) and 100 µg/ml losartan (Fluka#61188) for at least 3 weeks. The experiments were performed in accordance with German legislation on protection of animals and were approved by the local governmental animal care committee (Regierungspraesidium Darmstadt).
Isolated segments of femoral and mesenteric arteries were examined in an isometric microvessel myograph as described previously (52). Mounted vessels were stimulated with 80 mM K+, 30 nM angiotensin II or increasing concentrations of phenylephrine (100 nM to 10 μM). The pCa-force relationships (13, 14) were obtained in permeabilized mouse femoral artery segments. In brief, arteries were permeabilized for 30 minutes using 0.5% Triton X-100 in relaxation solution. The latter consisted of (in mM): EGTA 1, Pipes 30, Na2ATP 5.16, MgCl2 7.31, sodium creatine phosphate 10 and potassium gluconate 74.1. For contraction curves the buffer was supplemented with 160 U/ml calmodulin and 100 U/ml creatine phosphokinase. The concentration of free Ca2+ ions was calculated as described previously (53).

[3] = system: aortae of miR-143/145 KO mice; assay: Affymetrix GeneChip mRNA expression analysis of aortae after chronic captopril or losartan
Text: as §1, with “For chronic ACE or AT1 inhibition drinking water of mice was supplemented with 600 μg/ml captopril (Sigma#C-8856) and 100 µg/ml losartan (Fluka#61188) for at least 3 weeks.” left out
Tissues were dissected from PBS perfused animals and total RNA was isolated using the Trizol method (Invitrogen). RNA quality was checked on the Agilent 2100 Bioanalyser using the RNA 6000 Nano Kit. For mRNA expression analysis the Affymetrix GeneChip Mouse Genome 430 2.0 Array was employed with the respective one-cycle target labelling protocol. Data were analysed by the RMA algorithm using the Affymetrix Expression Console. […] 507 probe sets were identified with p<0.05 and FC>1.5 or FC<0.666. For miRNA expression analysis 384 3′ C6 aminolinker DNA-oligonucleotides complementary to published miRNA (Sanger, miRBase) sequences were synthesised and spotted with eight replicates per array to Nexterion E slides. Probe labelling and hybridization followed the Agilent miRNA labelling protocol, but P-CTTTT-Alexa555 or P-CTTTTAlexa647 oligonucleotides (MWG-Biotech) were ligated to the miRNAs. Arrays were scanned and analysed with an Axon 4200B scanner and GenePix Pro 6.0. Normalisation and data analysis was performed using Acuity 4.0. For multiple tissue comparison, miRNA from tissues was labelled with the Alexa555 dye, miRNA from whole E15.5 embryos labelled with Alexa647 dye was used as a reference. Data were linear normalized to a log ratio of 1 for the ratio of medians of let-7a-g and let-7i signals. The log 2 ratio data were centered for the single miRNA expression signals (by subtracting the row mean from each value), log 2 ratio data are visualized. For Northern blot analysis 3 μg (aorta 1.5 μg) of total RNA were separated on a 15% Polyacrylamide-Urea gel (Invitrogen) and blotted on Hybond XL (Amersham). miR-145, miR-143 and U6 antisense oligonucleotides were labeled with γ-ATP and PNK (NEB) and purified using Micro Bio-Spin® 6 columns (Biorad). Hybridization was performed in Ultrahyb hybridization buffer (Ambion) at 30° C. over night. Blots were washed 2 times in 2×SSC/0.1% SDS at 25° C. (5 min) and at 42° C. (15 min). Signals were detected using a BAS-2500 imager (Fujifilm).

[4] = aorta, chronic oral treatment 20 days

CCCCc1nc(Cl)c(CO)n1Cc1ccc(-c2ccccc2-c2nn[nH]n2)cc1 [losartan]
significant morphological changes in arteries [1]: not observed
phenylephrine induced contraction relative to K+ force ([2]; KO mice, losartan for 3 weeks): 96 % of the K+ force
enhancement of phenylephrine induced contraction ([2]; KO mice, losartan for 3 weeks, 3 μM phenylephrine): 214%
enhancement of phenylephrine induced contraction ([2]; KO mice, losartan for 3 weeks, 10 μM phenylephrine): 57%
phenylephrine-induced vasoconstriction ([2]; WT mice, losartan): did not affect
contractility on phenylephrine stimulation ([2]; arterial rings from KO animals, losartan-treated vs. KO untreated): significant enhancement
FC Acta1 (1427735_a_at), treated miR-143/145 KO vs. WT [3, 4]: 0.76
FC Arhgef17 (1433682_at), treated miR-143/145 KO vs. WT [3, 4]: 1.11
FC Cald1 (1424768_at), treated miR-143/145 KO vs. WT [3, 4]: 1.53
FC Camk2g (1423942_a_at), treated miR-143/145 KO vs. WT [3, 4]: 1.17
FC Cap2 (1423222_at), treated miR-143/145 KO vs. WT [3, 4]: 1.36
FC Clcn3 (1433486_at), treated miR-143/145 KO vs. WT [3, 4]: 1.27
FC Efemp1 (1427183_at), treated miR-143/145 KO vs. WT [3, 4]: 0.71
FC Itga3 (1455158_at), treated miR-143/145 KO vs. WT [3, 4]: 0.84
FC Krt8 (1420647_a_at), treated miR-143/145 KO vs. WT [3, 4]: 1.00
FC Mc2r (1422926_at), treated miR-143/145 KO vs. WT [3, 4]: 0.70
FC Mylk (1425506_at), treated miR-143/145 KO vs. WT [3, 4]: 1.06
FC Mylpf (1448371_at), treated miR-143/145 KO vs. WT [3, 4]: 1.05
FC Myoc (1450468_at), treated miR-143/145 KO vs. WT [3, 4]: 0.76
FC Neo1 (1440789_at), treated miR-143/145 KO vs. WT [3, 4]: 1.27
FC Npr3 (1435184_at), treated miR-143/145 KO vs. WT [3, 4]: 1.68
FC Pde3b (1433694_at), treated miR-143/145 KO vs. WT [3, 4]: 0.87
FC Ppp2r1b (1419871_at), treated miR-143/145 KO vs. WT [3, 4]: 0.65
FC Prkg1 (1449876_at), treated miR-143/145 KO vs. WT [3, 4]: 1.16
FC Rock1 (1460729_at), treated miR-143/145 KO vs. WT [3, 4]: 1.77
FC S100a8 (1419394_s_at), treated miR-143/145 KO vs. WT [3, 4]: 1.83
FC S100a9 (1448756_at), treated miR-143/145 KO vs. WT [3, 4]: 1.64
FC Serca1 (1419312_at), treated miR-143/145 KO vs. WT [3, 4]: 0.82
FC Tnnc2 (1417464_at), treated miR-143/145 KO vs. WT [3, 4]: 1.51
FC Unc5c (1449522_at), treated miR-143/145 KO vs. WT [3, 4]: 0.80
number of the 507 deregulated probe sets returned to normal (WT) levels ([3]; mutant mice, 3 weeks (20 days) oral application, p > 0.05 vs. WT, n = 3): 220
